US9145381B2, “Derivative of [(3-hydroxy-4-pyron-2-yl)-methyl]-amine and use thereof as anti-neoplastic drugs” (Universita' Degli Studi Di Urbino, priority 2008, dated 2015)
pIC50: −log10 of the molar value.

Legend:
Format in all cases: cell-based
U937 cells = test: Fragmentation of genomic DNA, agarose gel electrophoresis; conditions: U937, 72 hours; L1 25, 50, 100 μM; L9 2.5, 5, 10 μM
Method: The cells were treated for 72 hours with L1 and L9 at the concentrations shown in the Figure, the genomic DNA was then extracted, separated on a 2% agarose gel and stained with ethidium bromide.
The induction of apoptosis by compounds L1 and L9 has further been confirmed with the analysis of the fragmentation of the genomic DNA carried out by electrophoresis on an agarose gel. U937 cells treated with L1 (non-treated as a control) at concentrations of 25, 50, 100 μM and L9 at concentrations of 2.5, 5, 10 μM for 72 hours were harvested (about 2×10^6 cells), washed with cold 1×PBS and incubated in 2 ml of 1×TBS, 0.5% Tween20, 1 mM EDTA for 30 minutes at +4° C. After being centrifuged at 1200 rpm, for 5 minutes at +4° C., the cells were incubated in 0.5 ml of a solution at 0.1% SDS for 30 minutes at room temperature. The genomic DNA was then extracted by using a QIAquick Gel Extraction Kit (Qiagen, Hilden, Germany), electrophoretically separated by means of a 2% agarose gel and stained with ethidium bromide.

[1] = system: all tested tumour cell lines (U937, NB4, HL-60, JURKAT, U-373MG, HeLa, H-28, RH-4); test: Antiproliferative activity, Trypan blue viability; conditions: range over the tested cell lines, 72 hours, read-out: IC50 values in the different tested cell lines
Method: In order to evaluate the ability of these compounds to inhibit the proliferation of tumour cells in vitro, eight cell lines were selected, four deriving from haematopoietic tumours and four deriving from solid tumours. […] Each cell line has been grown in the appropriate growth medium at 37° C. […] The hematopoietic populations were diluted with preheated growth medium at 37° C. at a concentration of 1×10^5 cells/ml and aliquots of 2 ml were aliquoted in each single well of 6-well plates. The adhering cells were trypsinized, diluted with preheated growth medium at 37° C. and 0.5×10^5 cells were aliquoted in each single well of 6-well plates. […] Both compounds were diluted in distilled water and the treatments were repeated every 24 hours.

tumour cell lines = test: Cell cycle and apoptosis, propidium iodide cytofluorimetric analysis; conditions: 72 hour treatment; for interruption of the cell cycle: tested tumour cell lines in general, different concentrations
Method: (§1) FIG. 5: Apoptosis induced by L1 after treatment for 72 hours at a concentration of 50 μM. FIGS. 6-13: Effects of L1 on the percentages of the different phases of the cell cycle after a 72 hour treatment at different concentrations. FIG. 14: Apoptosis induced by L9 after a 72 hour treatment at a concentration of 5 μM. FIGS. 15-22: Effects of L9 on the percentages of the different phases of the cell cycle after a 72 hour treatment at different concentrations.
(§2) The effects of L1 and L9 on the progression of the cell cycle and on its hypothetical ability to induce the apoptotic process were evaluated by cytofluorimetric analysis by means of propidium iodide staining of all of the previously tested cell lines. Cell treated with different concentrations of the two compounds, as previously disclosed, have been harvested and washed with cold phosphate buffer (1×PBS). The cells were resuspended in cold 70% ethanol and fixed at +4° C. for 24 hours. All of the samples were then centrifuged at 1300 rpm at +4° C. for 3 minutes and then resuspended in a solution containing propidium iodide (1×PBS; 0.1% Triton X-100, 0.1% sodium citrate, 250 μg/ml RNasi A, 50 μg/ml propidium iodide) and, after 24 hours of incubation at +4° C., a minimum of 1×10^4 events were acquired at the BD FACScan cytofluorimeter (BD Biosciences, San Jose, Calif., USA). The acquisitions were analysed by a FlowJo 5.7.2 software (Tree Star, Inc., Ashland, Oreg., USA) in order to determine the percentage of cells in different phases of the cell cycle and displaying hypoploid conditions (Apoptotic cells). The induction of programmed cell death was computed as the difference between the percentage of hypodiploid cells in treated and non-treated samples.

JURKAT cells = test: Cell cycle, propidium iodide cytofluorimetric analysis; conditions: 72 hour treatment
Method: as §1, §2

H-28 cells = test: as above; conditions: H-28, 72 hour treatment
Method: as §1, §2

HeLa cells = test: as above; conditions: 72 hour treatment
Method: as §1, §2

HL-60 cells = test: as above; conditions: HL-60 (printed H1-60 / JL-60), 72 hour treatment
Method: as §1, §2

RH-4 cells = test: as above; conditions: RH-4, 72 hour treatment
Method: as §1, §2

[2] = system: HeLa cells (uterine cervix cancer); test: Antiproliferative activity, Trypan blue viability; conditions: 72 hours, treatments repeated every 24 hours, maximum over the lines
Method: (§3) FIGS. 3 and 4 show a diagram with the inhibiting concentrations (IC50) of L1 (FIG. 3) and L9 (FIG. 4) in different tumour cell lines. Cells in an exponential growth phase were treated for 72 hours with L1 and L9 and then harvested and stained with Trypan blue in order to determine viability. The values of IC50 have been computed for each compound as the concentration that can determine a 50% reduction in viable cells with respect to a non-treated control.
(§4) In order to evaluate the ability of these compounds to inhibit the proliferation of tumour cells in vitro, eight cell lines were selected, four deriving from haematopoietic tumours and four deriving from solid tumours. The tested hematopoietic lines comprise three myeloid tumour cell lines (U937—acute monocytic leukaemia, NB4—acute promyelocytic leukaemia, HL-60—acute myeloid leukaemia) and a lymphoid tumour cell line (JURKAT—T cell leukaemia), while cell lines deriving from multiform glioblastoma (U-373MG), from uterine cervix cancer (HeLa), from malignant pleural mesothelioma (H-28) and from rhabdomyosarcoma (RH-4) have been used as lines representative of solid tumours. Each cell line has been grown in the appropriate growth medium at 37° C. (RPMI 1640 for the hematopoietic lines and DMEM for the adhering cells deriving from solid tumours—Cambrex, Walkersville, Md., USA) added with 10% FBS, 1% glutamine, 100 IU/ml penicillin, 100 μg/ml streptomycin in a highly humidified atmosphere at 5% CO2. The hematopoietic populations were diluted with preheated growth medium at 37° C. at a concentration of 1×10^5 cells/ml and aliquots of 2 ml were aliquoted in each single well of 6-well plates. The adhering cells were trypsinized, diluted with preheated growth medium at 37° C. and 0.5×10^5 cells were aliquoted in each single well of 6-well plates. The cells in an exponential growth phase were treated with different concentrations of L1 or L9. Both compounds were diluted in distilled water and the treatments were repeated every 24 hours. 72 hours after starting the treatments, cell viability was evaluated by means of Trypan blue staining and the inhibiting concentration (IC50) was computed for each cell line as the concentration allowing to reduce by 50% the number of viable cells, with respect to a non-treated control.

[3] = system: hematopoietic cells (U937, NB4, HL-60, JURKAT); test: Antiproliferative activity, Trypan blue viability; conditions: 72 hours
Method: as §3, §4

[4] = system: RH-4 cells (rhabdomyosarcoma); test: Antiproliferative activity, Trypan blue viability; conditions: 72 hours, treatments repeated every 24 hours, minimum over the lines
Method: as §3, §4

[5] = system: cell lines deriving from solid tumours (U-373MG, HeLa, H-28, RH-4); test: Antiproliferative activity, Trypan blue viability; conditions: cells deriving from solid tumours, 72 hours
Method: as §3, §4

| pIC50 [1] | pIC50 [2] | pIC50 [3] | pIC50 [4] | pIC50 [5] | Structure (SMILES) | fragmentation of genomic DNA (U937 cells) | interruption of the cell cycle (tumour cell lines) | block of the cell cycle (JURKAT cells) | block of the cell cycle (H-28 cells) | block of the cell cycle (HeLa cells) | block of the cell cycle (HL-60 cells) | induction of apoptosis (hypodiploid cells) (tumour cell lines; tumour cells, propidium iodide) | block of the cell cycle (RH-4 cells) |
| --- | --- | --- | --- | --- | --- | --- | --- | --- | --- | --- | --- | --- | --- |
| 5.64 to 5.84 |  |  |  |  | CN1CCN(Cc2occc(=O)c2O)CCN(C)CCN(Cc2occc(=O)c2O)CC1 [Compound L9, 4(N),10(N)-bis[(3-hydroxy-4-pyron-2-yl)methyl]-1,7-dimethyl-1,4,7,10-tetraazacyclododecane] | concentration-dependent internucleosomic fragmentation | mainly blocked in phase G2 | stop especially in phase S | moderate block in phase G1 | stop especially in phase S | moderate block in phase G1 |  |  |
|  | 4.52 | 4.98 | 5.35 | 4.66 | CN(CCN(C)Cc1occc(=O)c1O)Cc1occc(=O)c1O [Compound L1, N,N′-bis[(3-hydroxy-4-pyron-2-yl)methyl]-N,N′-dimethylethylendiamine] | concentration-dependent internucleosomic fragmentation | interrupt the cell cycle of tumour cells in phase S and G2 in a concentration-dependent manner | severe block in G2 |  | mainly blocked in phase S | mainly blocked in phase S | induce apoptosis | severe block in G2 |
